Data as given in patent publication US11628179B2, “Compounds for treating and preventing extracellular histone mediated pathologies” (priority 2017, dated 2023).
Values joined by “and” are separate entries in the source; they are usually repeats but may differ in a detail not shown here. Equal entries are not always repeated. Structures can show the parent of a compound that is named as a salt.

How the values were obtained:
[1] = mCBS vs CBS levels in bulk powder stored at −20° C. (CAD); format: physicochemical
Protocol: Table 2b compares mCBS vs CBS levels in a representative batch of bulk powder when stored at −20° C. over 24 months. T is for time in months. T=0 or T0 represents analytical results carried out on completion of manufacture. Subsequent analysis indicated are relative to the initial analysis of the drug powder or formulation (e.g. […] Analytical method employing CAD (Charged Aerosol Detector) was used to measure the level of mCBS purity and its impurities and expressed as CAD %.

[2] = mCBS vs CBS levels in phosphate buffered pH 7.5 clinical trial formulation stored at 2-8° C. (CAD); format: physicochemical; conditions: 2-8° C.
Sprague Dawley rats = tested on: Sprague Dawley rats
Protocol: This study examined acute toxicity from single IV administration of mCBS in rats with doses up to 1000 mg/kg.
The acute toxicity of β-O-methyl cellobioside sulfate (mCBS) was assessed in Sprague Dawley rats following intravenous administration of a single bolus dose. A total of five groups of n=3 adult female rats were treated with 10, 30, 100, 300 and 1000 mg/kg doses of mCBS test item in the form of the sodium salt (mCBS.Na) in this dose range finding study. […] The rats were then observed for 7 days prior to termination without necropsy.

human plasma proteins = test: Plasma protein binding by ultrafiltration, human plasma; format: in vitro ADME; conditions: for Concentration of mCBS, 200 ng/mL Post-filter / Concentration of mCBS, 200 ng/mL Pre-filter / Concentration of mCBS, 2000 ng/mL Post-filter / Concentration of mCBS, 2000 ng/mL Pre-filter: replicates and Mean
Protocol: (§1) Protein binding was assessed by an ultrafiltration method using Centrifree® Ultrafiltration Devices with a 30000 dalton molecular weight cut-off point. Briefly, known concentrations of mCBS (as free base) were added to human, rat and dog plasma samples and incubated for 20 min at 37° C. The samples were then subject to ultrafiltration to separate protein bound and unbound drug.
(§2) mCBS stock solutions (10 μL) were spiked into solutions of each test matrix (490 μL) as listed below in Table 9 to have a final concentration of 200 ng/mL & 2000 ng/m L.
(§3) Spiked samples were then incubated at 37° C. for 20 minutes in a water bath. Aliquots of the samples from each test group (500 μL) were transferred to the ultrafiltration devices (n=3) and centrifuged for 20 minutes at 1000 g. After centrifugation, aliquots of the ultrafiltrates (50 μL) were transferred to separate test tubes for extraction, alongside duplicate aliquots of the samples prior to ultrafiltration from each test group.
(§4) For quantification of samples before ultrafiltration, samples were analysed against a freshly prepared standard curve in plasma.

rat plasma proteins = test: Plasma protein binding by ultrafiltration, rat plasma; format: in vitro ADME; conditions: for Concentration of mCBS, 200 ng/mL Post-filter / Concentration of mCBS, 200 ng/mL Pre-filter / Concentration of mCBS, 2000 ng/mL Post-filter / Concentration of mCBS, 2000 ng/mL Pre-filter: replicates and Mean
Protocol: as §1, §2, §3, §4

human platelets = test: Histone-induced platelet aggregation; format: cell-based; conditions: compounds added prior to histones 150 μg/mL
[3] = tested on: Human platelets in whole blood; test: Histone-induced platelet degranulation (ATP release); format: cell-based; conditions: compounds added prior to histones 400 μg/mL
whole blood coagulation = test: Inhibition of histone-induced perturbation of whole blood coagulation (ROTEM); format: biochemical, human; conditions: mCBS 200 μg/mL
Excerpt: In comparison, the same volume of water had no effect (FIG. 19).

mice [4] = test: In-vivo histone toxicity assay, organ damage markers at 4 hr; set-up: species or system mouse; conditions: 6.25, 25 and 100 mg/kg i.p. 10 min prior to histones 50 mg/kg i.v.; blood at 4 hr
mice [5] = test: In-vivo histone toxicity assay, circulating blood cells at 10 min; set-up: species or system mouse; conditions: 100 mg/kg i.p. 10 min prior to histones 50 mg/kg i.v.; bled 10 min later
Protocol: In-vivo histone toxicity assays. BALB/c female mice (5˜6 weeks of age), that are more prone to histone-induced anemia and easier to inject i.v. at this young age than C57BL/6 mice, were injected i.p. with test compounds at concentrations indicated 10 min prior to i.v. injection of histones (50 mg kg^−1) in phosphate buffered saline. Retro-orbital bleeds were performed at 10 min after histone injection and collected blood added to acid citrate dextrose (ACD), the 10 min blood sample being subjected to hematologic analyses for platelet and erythrocyte content using an ADVIA 2120i Hematology Analyzer. Spleens were also harvested at 10 min post-histone injection and splenic hemoglobin content quantified using a hemoglobin assay kit (Sigma-Aldrich). In the case of 4 h blood samples, male C57/BL/6 mice (6-8 weeks of age) were injected with test compounds and histones as above and plasma isolated and stored frozen for subsequent biochemical testing, with markers for liver (alanine aminotransferase, ALT), kidney (Creatinine, Crea) and general tissue (lactate dehydrogenase, LDH) damage being determined by the Department of Pathology, The Canberra Hospital.
Accordingly, the inventors in this example investigated the protective effect of mCBS on cells within the blood stream following intravenous injection of histones. […]

## CO[C@@H]1O[C@H](COS(=O)(=O)O)[C@@H](O[C@@H]2O[C@H](COS(=O)(=O)O)[C@@H](OS(=O)(=O)O)[C@H](OS(=O)(=O)O)[C@H]2OS(=O)(=O)O)[C@H](OS(=O)(=O)O)[C@H]1OS(=O)(=O)O [mCBS, β-O-methyl cellobioside sulfate]
[1]; 24 months
  stability when stored in powder: high stability
[1]; T0 (months)
  level in bulk powder: 98.56 CAD %
[1]; T1
  level in bulk powder: 98.45 CAD %
[1]; T3
  level in bulk powder: 98.28 CAD %
[1]; T6
  level in bulk powder: 98.22 CAD %
[1]; T9
  level in bulk powder: 97.77 CAD %
[1]; T12
  level in bulk powder: 98.00 CAD %
[1]; T18
  level in bulk powder: 97.94 CAD %
[1]; T24
  level in bulk powder: 98.26 CAD %
[2]; T0 (months)
  level in phosphate buffered pH 7.5 formulation: 98.33 CAD %
[2]; T2
  level in phosphate buffered pH 7.5 formulation: 98.39 CAD %
[2]; T3
  level in phosphate buffered pH 7.5 formulation: 98.37 CAD %
[2]; T7
  level in phosphate buffered pH 7.5 formulation: 98.54 CAD %
[2]; T10
  level in phosphate buffered pH 7.5 formulation: 98.47 CAD %
[2]; T13
  level in phosphate buffered pH 7.5 formulation: 98.44 CAD %
[2]; T19
  level in phosphate buffered pH 7.5 formulation: 98.78 CAD %
[2]; over 18 months
  stability when stored in aqueous buffered solution: high stability
Sprague Dawley rats; IV bolus single and 7-day studies, corrected for potency
  MTD estimate from potency assessment, free base: ~600 mg/kg
Sprague Dawley rats; single IV bolus, corrected for purity and sodium content
  Maximum Tolerated Dose (MTD), as free base: 815 mg/kg
Human plasma proteins; 200 ng/mL
  Plasma protein binding (%): 22.3%
Human plasma proteins; 2000 ng/mL
  Plasma protein binding (%): 15.8%
Human plasma proteins
  Concentration of mCBS, 200 ng/mL Post-filter: 0.181 µg/mL and 0.15 µg/mL and 0.169 µg/mL
  Concentration of mCBS, 200 ng/mL Pre-filter: 0.217 µg/mL and 0.213 µg/mL
  Concentration of mCBS, 2000 ng/mL Post-filter: 1.86 µg/mL and 1.75 µg/mL and 1.77 µg/mL
  Concentration of mCBS, 2000 ng/mL Pre-filter: 2.19 µg/mL and 2.07 µg/mL
Human plasma proteins; mean
  Concentration of mCBS, 200 ng/mL Post-filter: 0.167 µg/mL
  Concentration of mCBS, 200 ng/mL Pre-filter: 0.215 µg/mL
  Concentration of mCBS, 2000 ng/mL Post-filter: 1.793 µg/mL
  Concentration of mCBS, 2000 ng/mL Pre-filter: 2.13 µg/mL
Rat plasma proteins; 200 ng/mL
  Plasma protein binding: 19.4%
Rat plasma proteins; 2000 ng/mL
  Plasma protein binding: 19.8%
Rat plasma proteins
  Concentration of mCBS, 200 ng/mL Post-filter: 0.164 µg/mL and 0.177 µg/mL and 0.167 µg/mL
  Concentration of mCBS, 200 ng/mL Pre-filter: 0.205 µg/mL and 0.217 µg/mL
  Concentration of mCBS, 2000 ng/mL Post-filter: 1.71 µg/mL and 1.74 µg/mL and 1.69 µg/mL
  Concentration of mCBS, 2000 ng/mL Pre-filter: 2.09 µg/mL and 2.18 µg/mL
Rat plasma proteins; mean
  Concentration of mCBS, 200 ng/mL Post-filter: 0.17 µg/mL
  Concentration of mCBS, 200 ng/mL Pre-filter: 0.211 µg/mL
  Concentration of mCBS, 2000 ng/mL Post-filter: 1.713 µg/mL
  Concentration of mCBS, 2000 ng/mL Pre-filter: 2.135 µg/mL
Human platelets
  histone-induced platelet aggregation: significantly reduced
[3]
  histone-induced platelet degranulation (ATP release): significantly reduced
Whole blood coagulation
  inhibition of histone-induced prolongation of clotting time: able to inhibit the anticoagulant effects of both 400 and 800 μg/mL of histones
Mice [4]
  protection from histone-induced organ damage (LDH, ALT, creatinine): protects animals from histone-mediated injury
Mice [5]
  histone-mediated reductions in circulating leukocytes, platelets, erythrocytes and haemoglobin: significantly inhibited if not completely abolished
